Active and inactive are the calls of the source. The rule behind the calls is not given here.
Legend:
[1] = biological target: Ras-related C3 botulinum toxin substrate 1 (Homo sapiens) (UniProt P63000); test: Inhibition of Rac1 in human MDA-MB-231 cells assessed as remaining enzyme activity at 2 uM by Western blotting based pulldown assay (reference value: 100%); assay type: cell-based
MDA-MB-435 [2] = test: Cytotoxicity against human MDA-MB-435 cells assessed as reduction in cell viability at 25 uM incubated for 24 hrs by MTT assay; assay type: functional, cell-based
MDA-MB-231 [3] = test: Cytotoxicity against human MDA-MB-231 cells assessed as reduction in cell viability at 1 to 2 uM incubated for 24 hrs by MTT assay; assay type: functional, cell-based
MCF-10A [4] = test: Cytotoxicity against human MCF10A cells assessed as reduction in cell viability at 1 to 2 uM incubated for 24 hrs by MTT assay; assay type: cell-based
[5] = biological target: Cell division control protein 42 homolog (Homo sapiens) (UniProt P60953); test: Inhibition of Cdc42 in human MDA-MB-435 cells assessed as inhibition of lamellipodia formation at 2 to 4 uM incubated for 24 hrs rhodamine phalloidin staining based fluorescence microscopy; assay type: cell-based
Sequence of Cell division control protein 42 homolog (Homo sapiens) (P60953 whole entry, looked up, the tested form may be a part): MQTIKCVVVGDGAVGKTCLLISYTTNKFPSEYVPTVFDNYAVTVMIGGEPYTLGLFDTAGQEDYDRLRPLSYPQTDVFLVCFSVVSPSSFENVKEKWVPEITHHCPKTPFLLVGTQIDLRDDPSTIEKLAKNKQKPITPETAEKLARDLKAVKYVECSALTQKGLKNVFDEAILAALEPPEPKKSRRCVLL

[6] = biological target: Ras-related C3 botulinum toxin substrate 1 (Homo sapiens) (UniProt P63000); test: Inhibition of Rac1 in human MDA-MB-435 cells assessed as remaining enzyme activity at 2 uM by Western blotting based pulldown assay (reference value: 100%); assay type: cell-based
[7] = Toxicity in athymic nude mouse assessed as effect on body weight at 1 mg/kg, ip dosed once week for 9 weeks; assay type: organism-based; settings: in vivo, 1512 h
[8] = Toxicity in athymic nude mouse assessed as effect on body weight at 1 mg/kg, po dosed once week for 9 weeks; assay type: organism-based; settings: in vivo, 1512 h
[9] = biological target: Cell division control protein 42 homolog (Homo sapiens) (UniProt P60953); test: Inhibition of Cdc42 in human MDA-MB-435 cells assessed as remaining enzyme activity at 4 uM by Western blotting based pulldown assay (reference value: 100%); assay type: cell-based
MDA-MB-231 [10] = test: Cytotoxicity against human MDA-MB-231 cells assessed as reduction in cell viability at 25 uM incubated for 24 hrs by MTT assay; assay type: functional, cell-based
[11] = biological target: Cell division control protein 42 homolog (Homo sapiens) (UniProt P60953); test: Inhibition of Cdc42 in human MDA-MB-435 cells assessed as remaining enzyme activity at 10 uM by Western blotting based pulldown assay (reference value: 100%); assay type: cell-based
[12] = Toxicity in athymic nude mouse assessed as effect on gross indications of toxicity at 1 mg/kg, po dosed once week for 9 weeks; assay type: organism-based; settings: in vivo, 1512 h
[13] = test system: Ras-related C3 botulinum toxin substrate 1 (Homo sapiens), P63000 [G15A]; test: Inhibition of glutathione agarose conjugated Rac1 G15A mutant (unknown origin) in assessed as reduction in purified Tiam-1 DH/PH domain association with Rac1 G15A mutant at 40 uM by Western blotting based pulldown assay relative to control
[14] = test system: Ras-related C3 botulinum toxin substrate 1 (Homo sapiens), P63000 [G15A]; test: Inhibition of glutathione agarose conjugated Rac1 G15A mutant (unknown origin) in assessed as reduction in purified Tiam-1 DH/PH domain association with Rac1 G15A mutant by measuring average Tiam-1 level in pulldown at 8 uM by Western blotting based pulldown assay (reference value: 100%); parameters: scale not given: the % may be the effect or the level left
[15] = biological target: Transforming protein RhoA (Homo sapiens) (UniProt P61586); test: Activation of RhoA in human MDA-MB-435 cells assessed as remaining enzyme activity at 4 uM by Western blotting based pulldown assay (reference value: 100%); assay type: cell-based
Sequence of Transforming protein RhoA (Homo sapiens) (P61586 whole entry): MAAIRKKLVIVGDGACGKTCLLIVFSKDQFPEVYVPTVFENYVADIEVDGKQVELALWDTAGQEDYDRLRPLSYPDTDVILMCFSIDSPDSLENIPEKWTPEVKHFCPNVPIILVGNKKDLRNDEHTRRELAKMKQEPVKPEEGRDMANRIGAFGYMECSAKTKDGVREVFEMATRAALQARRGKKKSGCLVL

[16] = biological target: Transforming protein RhoA (Homo sapiens) (UniProt P61586); test: Activation of RhoA in human MDA-MB-435 cells assessed as remaining enzyme activity at 5 uM by Western blotting based pulldown assay (reference value: 100%); assay type: cell-based
[17] = biological target: Cell division control protein 42 homolog (Homo sapiens) (UniProt P60953); test: Inhibition of Cdc42 in human MDA-MB-435 cells assessed as remaining enzyme activity at 2 uM by Western blotting based pulldown assay (reference value: 100%); assay type: cell-based
[18] = test system: Ras-related C3 botulinum toxin substrate 1 (Homo sapiens), P63000 [G15A]; test: Inhibition of glutathione agarose conjugated Rac1 G15A mutant (unknown origin) in assessed as reduction in purified Tiam-1 DH/PH domain association with Rac1 G15A mutant at […] by Western blotting based pulldown assay relative to control
[19] = Toxicity in athymic nude mouse assessed as effect on gross indications of toxicity at 1 mg/kg, ip dosed once week for 9 weeks; assay type: organism-based; settings: in vivo, 1512 h
[20] = biological target: Cell division control protein 42 homolog (Homo sapiens) (UniProt P60953); test: Inhibition of Cdc42 in human MDA-MB-231 cells assessed as inhibition of lamellipodia formation at 2 to 4 uM incubated for 24 hrs rhodamine phalloidin staining based fluorescence microscopy; assay type: cell-based
[21] = biological target: Ras-related C3 botulinum toxin substrate 1 (Homo sapiens) (UniProt P63000); test: Potency index, ratio of IC50 for NSC-23766 to IC50 for test compound for inhibition of Rac1 in human MDA-MB-435 cells incubated for 24 hrs by G-LISA Rac1 activation assay; assay type: cell-based
[22] = biological target: Transforming protein RhoA (Homo sapiens) (UniProt P61586); test: Activation of RhoA in human MDA-MB-435 cells assessed as remaining enzyme activity at 2 uM by Western blotting based pulldown assay (reference value: 100%); assay type: cell-based
[23] = biological target: Cell division control protein 42 homolog (Homo sapiens) (UniProt P60953); test: Inhibition of Cdc42 in human MDA-MB-435 cells assessed as remaining enzyme activity at 5 uM by Western blotting based pulldown assay (reference value: 100%); assay type: cell-based
[24] = biological target: Ras-related C3 botulinum toxin substrate 1 (Homo sapiens) (UniProt P63000); test: Inhibition of Rac1 in human MDA-MB-435 cells assessed as remaining enzyme activity at 4 uM by Western blotting based pulldown assay (reference value: 100%); assay type: cell-based
[25] = biological target: Ras-related C3 botulinum toxin substrate 1 (Homo sapiens) (UniProt P63000); test: Inhibition of Rac1 in human MDA-MB-435 cells assessed as reduction in PAK1 […] phosphorylation at 2 to 4 uM by Western blot analysis; assay type: cell-based
[26] = test system: Ras-related C3 botulinum toxin substrate 1 (Homo sapiens), P63000 [G15A]; test: Inhibition of glutathione agarose conjugated Rac1 G15A mutant (unknown origin) in assessed as reduction in purified Tiam-1 DH/PH domain association with Rac1 G15A mutant by measuring average Tiam-1 level in pulldown at 4 uM by Western blotting based pulldown assay (reference value: 100%); parameters: scale not given: the % may be the effect or the level left
MDA-MB-435 [27] = test: Cytotoxicity against human MDA-MB-435 cells assessed as reduction in cell viability at 1 to 2 uM incubated for 24 hrs by MTT assay; assay type: functional, cell-based
[28] = biological target: Ras-related C3 botulinum toxin substrate 3 (Homo sapiens) (UniProt P60763); test: Inhibition of Rac3 in human MDA-MB-435 cells assessed as remaining enzyme activity at 1 uM by Western blotting based pulldown assay (reference value: 100%); assay type: cell-based
[29] = test system: Ras-related C3 botulinum toxin substrate 1 (Homo sapiens), P63000 [G15A]; test: Inhibition of glutathione agarose conjugated Rac1 G15A mutant (unknown origin) in assessed as reduction in purified Tiam-1 DH/PH domain association with Rac1 G15A mutant by measuring average Tiam-1 level in pulldown at 25 uM by Western blotting based pulldown assay (reference value: 100%); parameters: scale not given: the % may be the effect or the level left
[30] = biological target: Ras-related C3 botulinum toxin substrate 1 (Homo sapiens) (UniProt P63000); test: Inhibition of Rac1 in human MDA-MB-231 cells assessed as remaining enzyme activity at 4 uM by Western blotting based pulldown assay (reference value: 100%); assay type: cell-based
MCF-10A [31] = test: Cytotoxicity against human MCF10A cells assessed as reduction in cell viability at 25 uM incubated for 24 hrs by MTT assay; assay type: cell-based
[32] = biological target: Transforming protein RhoA (Homo sapiens) (UniProt P61586); test: Activation of RhoA in human MDA-MB-435 cells assessed as remaining enzyme activity at 10 uM by Western blotting based pulldown assay (reference value: 100%); assay type: cell-based

## CCn1c2ccccc2c2cc(Nc3ccnc(NCCCN4CCOCC4)n3)ccc21
[1]
  Activity: 65%
MDA-MB-435 [2]
  Activity: Active
MDA-MB-231 [3]
  Activity: inactive
MCF-10A [4]
  Activity: Non-Toxic
[5]
  inhibition: inactive
[6]
  Activity: 19%
[7]
  Activity: Non-Toxic
[8]
  Activity: Non-Toxic
[9]
  Activity: 95%
MDA-MB-231 [10]
  Activity: Active
[11]
  Activity: 25%
[12]
  Activity: Non-Toxic
[13]
  inhibition: Active
[14]
  Activity: 96%
[15]
  Activity: 128%
[16]
  Activity: 125%
[17]
  Activity: 104%
[18]
  inhibition: Active
[19]
  Activity: Non-Toxic
[20]
  inhibition: inactive
[21]
  Ratio IC50: 100
[22]
  Activity: 155%
[23]
  Activity: 72%
[24]
  Activity: 7%
[25]
  inhibition: Active
[26]
  Activity: 123%
MDA-MB-435 [27]
  Activity: inactive
[28]
  Activity: 42%
[29]
  Activity: 112%
[30]
  Activity: 35%
MCF-10A [31]
  Activity: Toxic
[32]
  Activity: 123%
